Earlier results in patent publication US20250009787A1, “Nitric Oxide Containing Foam Formulation for Topical Medical Use” (NOxy Health Products, Inc., priority 2023, published 2025).

What was measured:
leg abscesses = conditions: 200 ppm NO gas, average of 8.1 hours, 14 consecutive nights
[1] = reported to be toxic at higher concentration

Q: With Nitric oxide [NO gas] as the substance, how does the lesion size (leg abscesses) read?
A: The lesion size was “significantly reduced in size”.

Q: What about the “toxic concentration (exposure)” value [1] of the same substance?
A: Its value is > 200 ppm.
